As usually defined, the IC50 is the concentration that inhibits the measured activity by half. A lower IC50 goes with greater potency in that assay.

One molecule from patent US12440475B2, “Hodgkin lymphoma therapy” (priority 2016, dated 2025) can be followed below.

In one assay the test system is L1236-R100. Description: Viable cell count and IC50, bendamustine-resistant cell line. The format is cell-based, human. Here is the method: (§1) • (a) Five Hodgkin lymphoma cell lines (KMH2, HDML2, L540, L1236 and L426) were cultured separately in the presence of bendamustine, vorinostat and EDO-S101 dissolved in DMSO at 37° C. L1236-derived Hodgkin lymphoma cell lines were selected as they have an acquired stable resistance to bendamustine (R100) or an ability to display continuous growth upon extended exposure to sub-lethal concentrations of bendamustine (R25, R50 and R75). A detailed description of the L1236-R Hodgkin lymphoma cell lines is disclosed in De Filippi et al, ASH 2015, Abstract. #2479. In these tests, the L1236-100R bendamustine resistant strain was used. […] Control cells were cultured in the same final concentration of DMSO. The number of viable cells was assessed at 24, 48 and 72 hours through a Countess™ automated cell counter (Invitrogen), each experiment being repeated three times and the results given being the mean of the three results±SD.

Assay [1] deals with Hodgkin lymphoma cell lines. Briefly: Proliferation and IC50 determination (MTS assay; manual counting using Trypan blue). Format: cell-based. The conditions noted are these: Homo sapiens, 48 h, range over all cell lines. Here is the method:
Nine Hodgkin lymphoma cell lines were cultured at 37° C. in 24-well plates at a concentration of 0.3×10^6 cells/ml in the presence of EDO-S101 at concentrations of 0, 5, 10, 15 and 20 μmol in DMSO for 24 hours and 48 hours and the proliferation of the cells was determined using a non-radioactive cell proliferation MTS assay with CellTiter 96® Aqueous One solution reagent obtained from Promega® (this is a colorimetric method for determining the number of viable cells in a proliferation comprising a tetrazolium compound [3-(4,5-dimethylthiazol-2-yl)-5-(3-carboxymethoxyphenyl)-2-(4-sulfophenyl)-2H-tetrazolium, inner salt; MIS). The proliferation was plotted against concentration of EDO-S101 for treatment after both 24 and 48 hours.
On the technique in general: Tetrazolium assays rely on reduction of a dye to a coloured formazan, in cell work by metabolically active cells.

For assay [2], the system named is Hodgkin lymphoma cell lines (KMH2, HDML2, L540, L1236 and L426). Description: IC50 comparison of bendamustine, vorinostat and EDO-S101, five cell lines. Format: cell-based, human. Here is the method: as §1
Another assay concerns CD14 cells. Description: CD14-positive cells by flow cytometry in xenografted NSG mice. Format: in vivo. Here is the method:
Cells were gated to exclude apoptotic or necrotic cells and sorted into CD30−/CD15− and CD30+ and CD15+/CD30+ fractions by gating on the lowest and highest 5% PE-expressing cells, respectively. Following sorting, the CD30−/CD15− cell fractions were analyzed using a FACScan flow cytometer (Becton Dickinson) and found to be more than 98% pure. For phenotypic analyses of cell lines or sorted cells, cells were prepared as described, and then stained with mouse anti-human CD30-phycoerthrin (PE), CD15—fluorescein isothyocyanate (FITC), CD14-APC-cyanine 7 (Cy7) and CD45-APC (all antibodies from BD PharMingen, San Diego, CA). […] Cells were subsequently analysed using a FACS LSRII (Becton Dickinson, Franklin Lakes, NJ). […]
Novel biomarkers CD68 and CD14 which are expressed by tumour associated macrophages and myeloid derived suppressor cells respectively in the microenvironment have recently been reported to affect the prognosis of Hodgkin lymphoma (Haematologica, 2011 February; 96(2): 186-189). The presence of the CD14-positive cells following administration of a single dose of EDO-S101 (60 mg/kg or 80 mg/kg) and after two administrations of EDO-S101 at 60 mg/kg was evaluated using flow cytometry with anti CD14 antibodies.
(In flow cytometry, cells or beads pass a laser one at a time.)

The next assay deals with L1236. Briefly: Cell cycle checkpoint proteins and gene expression, L1236. The format is cell-based, human. The conditions noted are these: naïve L1236; EDO-S101 alone.
In another assay the test system is L428 cells. Description: Orbital tumour mass at injection site in xenografted NSG mice. The format is in vivo. The note with it: after EDO-S101 injection. The text has this: Immunodeficient NOD-SCID-gammac−/− (NSG) mice aged 5 to 6 weeks were purchased from Charles River (NOD.Cg-Prkdcscid II2rgtm1Wjl/SzJ). The mice arrived two weeks before the beginning of the experiments and were housed in micro-isolator cages during the entire course of the study. Immediately prior to the injection of Hodgkin lymphoma cells, mice were exposed to 3 Gy gamma irradiation using an IBL637 ^137Cs irradiator at a dose rate of 0.61 Gy/min. From 10^3 to 10^6 cells, either from the original cell lines or following amplification, were injected intravenously via the retro-orbital sinus. The mice were sacrificed by cervical dislocation and different organs were analysed and tumoural infiltration examined using multiple techniques.
Two independent experiments were performed to investigate the dose-effect of EDO-S101 in NSG mice eight weeks after xenografting with L428 cells as in Example 8. The aim of the protocol shown in FIG. 8B was to evaluate the effect of sequential treatment with a moderate dose of 60 mg/kg given at an interval of three weeks.
Some mice developed an orbital tumour mass at the site of the injection. […] In one mouse only that was treated with two doses of 60 mg/kg of EDO-S101, a regression of the orbital tumour was initially observed followed by re-establishment of the orbital mass 3 weeks later. […]

As for `Cn1c(CCCCCCC(=O)NO)nc2cc(N(CCCl)CCCl)ccc21` [EDO-S101], the viable cells entry in the assay with L1236-R100 (R100, 48 hours after treatment with 50 μM) is on record as “no viable cells”. Besides, the “anti-proliferative activity compared with vorinostat” value with L1236-R100 (bendamustine-resistant cell line R100) was “greater than that of vorinostat”. Further, the IC50 in assay [1] was in the range of 1600 to 6300 nM; in assay [2] (Homo sapiens, range over all cell lines tested, including L1236-R), 1000 to 2000 nM. Also, the “IC50s relative to bendamustine” value in assay [2] (tumour cells of Hodgkin lymphoma) is reported as “about ten-fold lower than those of bendamustine”. In addition, the “frequency of CD14 cells, untreated versus treated mice” value in the assay with CD14 cells (60 mg/kg, 80 mg/kg, 2×60 mg/kg) is given as “significantly higher frequency of CD14 cells in untreated mice compared to treated mice”. Moreover, in the assay on CD14 cells (mouse, in vivo), the “frequency of CD14 cells, 2×60 mg/kg versus 80 mg/kg” value was “higher frequency following treatment with 2×60 mg/kg than treatment with a single dose of 80 mg/kg”. Moreover, in the assay on L1236, the “cell cycle checkpoint proteins, cellular and gene expression changes” value is “activated cell cycle checkpoint proteins and induced cellular and gene expression changes compatible with the triggering of apoptosis”. Further, in the assay on L428 cells, the “orbital tumour mass at site of injection” value was “signification regression”.
